# Test results: paper PMC6839502 (Journal of Alzheimer's Disease, 2019)
# Tests used:
# [1] = Safety and tolerability in study B8271007; assay type: in vivo, human; conditions: 100 mg QD
# Cathepsin D (Cat D) = conditions: FP assay; cited from earlier work
smiles,measurement,setting,value
C[C@H]1C[C@H]2CSC(N)=N[C@@]2(c2nc(NC(=O)c3ccc(OC(F)F)cn3)cs2)CO1 [PF-06751979],"ALT elevation, one subject","[1]; period 2, Day 7",2.12 ×ULN
same,"AST elevation, one subject","[1]; period 2, Day 7",1.23 ×ULN
same,"AST peak, one subject","[1]; period 2, Day 12",1.75 ×ULN
same,"ALT peak, one subject","[1]; period 2, Day 13",3.33 ×ULN
same,Selectivity over Cathepsin D,Cathepsin D (Cat D),~2500 fold
